Assay results reported in US6818391B2, “Glutamate transporters” (The Regents of the University of California, priority 2000, dated 2004).

Target: T1, BNPI (VGLUT1) (Rattus norvegicus, UniProt Q62634)
T1 construct: expressed in transfected cells; light membranes prepared from them
T1 sequence (Q62634 1-560): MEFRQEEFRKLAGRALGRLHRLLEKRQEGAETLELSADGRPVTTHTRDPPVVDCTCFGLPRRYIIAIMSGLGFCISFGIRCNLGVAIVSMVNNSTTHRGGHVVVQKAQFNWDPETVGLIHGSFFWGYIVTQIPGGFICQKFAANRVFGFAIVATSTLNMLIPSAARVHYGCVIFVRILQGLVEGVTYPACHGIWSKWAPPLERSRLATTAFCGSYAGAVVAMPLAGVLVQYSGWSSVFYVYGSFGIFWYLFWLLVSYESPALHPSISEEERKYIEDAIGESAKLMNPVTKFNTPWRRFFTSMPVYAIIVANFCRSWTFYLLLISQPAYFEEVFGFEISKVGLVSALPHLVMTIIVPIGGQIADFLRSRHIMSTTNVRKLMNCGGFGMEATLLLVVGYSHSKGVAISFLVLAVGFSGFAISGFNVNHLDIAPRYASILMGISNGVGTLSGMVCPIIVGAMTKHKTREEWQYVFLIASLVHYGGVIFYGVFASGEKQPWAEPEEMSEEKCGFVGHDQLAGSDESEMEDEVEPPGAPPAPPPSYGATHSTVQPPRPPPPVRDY
Assay: 3H-glutamate uptake by membranes from PC12 cells expressing BNPI
Assay type: biochemical
Details: for inhibition of 3H-glutamate uptake by membranes expressing BNPI: 10 mM, uptake at 5 min
Source text: Rather, the type I transporter NaPi-1 transports organic anions, including phenol red and penicillin G, with substantially higher apparent affinity than Pi (Busch et al. (1996) Proc. Natl. Acad. Sci., USA, 93: 5347). Human genetic studies have shown that mutations in another protein closely related to BNPI and NaPi-1 account for disorders of sialic acid storage (Verheijen et al. (1999) Nature Genet. 23: 462). In these conditions, sialic acid accumulates in lysosomes because of a defect in proton-driven export (Renlund et al. (1986) Science 232: 759; Mancini et al. (1989) J. Biol. Chem. 264: 15247; Tietze et al. (1989) J. Biol. Chem. 264: 15316; Mancini et al. (1992) Proc. Natl. Acad. Sci., USA, 89: 6609). […] To determine whether BNPI mediates the transport of glutamate into synaptic vesicles, we transfected the rat BNPI cDNA into rat pheochromocytoma PC12 cells, which lack detectable endogenous BNPI protein. The rat BNPI cDNA was stably expressed in PC12 cells, and immunofluorescence for BNPI was used to identify the most highly expressing cell clones. Membranes were prepared by homogenizing the washed cells in SH buffer [0.32 M sucrose and 10 mM Hepes-KOH (pH 7.4)] containing protease inhibitors and by pelleting the nuclei at 1000 g for 5 min and the heavier membranes at 27,000 g for 35 min. The supernatant containing lighter membranes was then pelleted at 210,000 g for 1 hour and resuspended in SH buffer with protease inhibitors at a final concentration of ˜10 μg protein/μl.
We then prepared a population of light membranes, including synaptic-like microvesicles, from the transfected and untransfected cells (McIntire et al. (1997) Nature 389: 870) and tested their ability to accumulate 3H-glutamate in the presence of 4 mM chloride and ATP, conditions that optimize glutamate accumulation by native synaptic vesicles (Maycox et al. (1988) J. Biol. Chem., 263: 15423; Carlson et al. […] J. Biol. Chem. 264: 7369). To initiate the transport reaction, we added 10 μl of membranes to 190 μl of SH buffer containing 4 mM KCl, 4 mM MgSO4, 4 mM ATP, and 50 μM 3H-glutamate, with other additions noted in the text and figure legends. The reaction mixture was incubated at 29° C. for varying times, and the uptake was terminated by rapid filtration, followed by immediate washes with 6 ml of cold 0.155 M potassium tartrate and 10 mM Hepes (pH 7.4). Background uptake was determined using membranes prepared from untransfected cells that were incubated for the same amount of time at the same temperature. Transport measurements were performed in duplicate with at least two different preparations of membranes. The Km was calculated by averaging the results of two separate determinations.

| Compound | inhibition of 3H-glutamate uptake by membranes expressing BNPI | inhibition of 3H-glutamate uptake by membranes expressing BNPI (listed as L-glutamate) | Km (initial rate at 1 min, Lineweaver-Burke, untransfected background subtracted, read-out: Km of glutamate transport by BNPI) [µM] | 3H-glutamate uptake by BNPI at non-optimal chloride (0 and 25 mM chloride) |
| --- | --- | --- | --- | --- |
| N[C@@H](CCC(=O)O)C(=O)O [L-Glutamate] | markedly inhibits | inhibited the uptake | ~2000 | – |
| Cl [chloride] | – | – | – | much less activity detected |
